From article PMC6213879, “Synthesis and Biological Evaluation of Novel Dehydroabietic Acid-Oxazolidinone Hybrids for Antitumor Properties” (International Journal of Molecular Sciences, 2018)

What was measured:
Type in all cases: cell-based
[1] = test system: MGC-803 human gastric cancer cell line; assay: MTT cytotoxicity assay, MGC-803; details: Homo sapiens, MGC-803, 48 h, mean ± SD from three independent experiments
Procedure: (§1) The in vitro antiproliferative activity of the DHAA derivatives 3a–o and 4a–o against four human cancer cell lines (MGC-803 human gastric cancer cell line, CNE-2 human nasopharyngeal carcinoma cell line, SK-OV-3 human ovarian carcinoma cell line, NCI-H460 human lung cancer cell line) and the human normal liver cell line LO2 were evaluated by MTT (methyl thiazolytetrazolium) assay and compared with the parent compound DHAA and the positive control cisplatin in each panel.
(§2) The cytotoxicity of the compounds was evaluated against NCI-H460, MGC-803, SK-OV-3, CNE-2 and LO2 using an MTT assay. Cells were grown on 96-well micro-plates at a density of 4 × 10^3 cells per well in DMEM (dulbecco’s modified eagle medium) medium with 10% FBS (fetal bovine serum). The plates were incubated at 37 °C with 5% CO2. The cells were then exposed to different concentrations of target compounds and cisplatin and incubated for another 48 h. Control wells were formed by culture media with the maximum concentration of DMSO used in each assay (1‰). The cells were stained with 20 µL of MTT in an incubator for about 4 h. The medium was thrown away and replaced by […] DMSO. The absorbance (OD) value was read at 490 nm on an enzyme labeling instrument. Each experiment was repeated at least three times to obtain the mean values.

[2] = test system: CNE-2 human nasopharyngeal carcinoma cell line; assay: MTT cytotoxicity assay, CNE-2; details: Homo sapiens, CNE-2, 48 h, mean ± SD from three independent experiments
Procedure: as §1, §2

[3] = test system: SK-OV-3 human ovarian carcinoma cell line; assay: MTT cytotoxicity assay, SK-OV-3; details: Homo sapiens, SK-OV-3, 48 h, mean ± SD from three independent experiments
Procedure: as §1, §2

[4] = test system: NCI-H460 human lung cancer cell line; assay: MTT cytotoxicity assay, NCI-H460; details: Homo sapiens, NCI-H460, 48 h, mean ± SD from three independent experiments
Procedure: as §1, §2

[5] = test system: human normal liver cell line LO2; assay: MTT cytotoxicity assay, normal LO2 cells; details: Homo sapiens, L02, 48 h, mean ± SD from three independent experiments
Procedure: as §1, §2

Row | Compound | IC50 [1] [µM] | IC50 [2] [µM] | IC50 [3] [µM] | IC50 [4] [µM] | IC50 [5] [µM]
1 | CC(C)c1ccc2c(c1)CCC1[C@](C)(C(=O)OCC3CN(c4cccc(Br)c4)C(=O)O3)CCC[C@]21C (stereo partly drawn) [Compound 4m, (1R,4aS)-(3-(3-Bromophenyl)-2-Oxooxazolidin-5-yl)Methyl-7-Isopropyl-1,4a-Dimethyl-1,2,3,4,4a,9,10,10a-Octahydrophenanthrene-1-Carboxylate] | 9.8 ± 2.37 | > 100 | > 100 | 25.1 ± 1.39 | 34.2 ± 2.88
2 | CC(C)c1ccc2c(c1)CC[C@H]1[C@](C)(C(=O)O)CCC[C@]21C [DHA, Dehydroabietic acid] | 29.8 ± 2.06 | 62.6 ± 1.6 | > 100 | > 100 | > 100
3 | Cc1ccccc1N1CC(COC(=O)[C@]2(C)CCC[C@]3(C)c4ccc(C(C)C)cc4CCC23)OC1=O (stereo partly drawn) [Compound 4b, (1R,4aS)-(3-(2-Methylphenyl)-2-Oxooxazolidin-5-yl)Methyl-7-Isopropyl-1,4a-Dimethyl-1,2,3,4,4a,9,10,10a-Octahydrophenanthrene-1-Carboxylate] | 25 ± 5.02 | > 100 | > 100 | 27.7 ± 5.03 | > 100
4 | CC(C)c1ccc2c(c1)CCC1[C@](C)(C(=O)OCC(O)CNc3ccccc3)CCC[C@]21C (stereo partly drawn) [Compound 3a, (1R,4aS)-2-Hydroxy-3-(Phenylamino)Propyl-7-Isopropyl-1,4a-Dimethyl-1,2,3,4,4a,9,10,10a-Octahydrophenanthrene-1-Carboxylate] | 7.1 ± 1.51 | 27.87 ± 0.25 | 15.1 ± 0.57 | 18.6 ± 0.97 | > 100
5 | CC(C)c1ccc2c(c1)CCC1[C@](C)(C(=O)OCC3CN(c4ccccc4)C(=O)O3)CCC[C@]21C (stereo partly drawn) [Compound 4a, (1R,4aS)-(2-Oxo-3-Phenyloxazolidin-5-yl)Methyl-7-Isopropyl-1,4a-Dimethyl-1,2,3,4,4a,9,10,10a-Octahydrophenanthrene-1-Carboxylate] | 11 ± 4.41 | 9.69 ± 0.13 | > 100 | 4.83 ± 0.77 | > 100
6 | Cc1ccc(N2CC(COC(=O)[C@]3(C)CCC[C@]4(C)c5ccc(C(C)C)cc5CCC34)OC2=O)cc1 (stereo partly drawn) [Compound 4d, (1R,4aS)-(3-(4-Methylphenyl)-2-Oxooxazolidin-5-yl)Methyl-7-Isopropyl-1,4a-Dimethyl-1,2,3,4,4a,9,10,10a-Octahydrophenanthrene-1-Carboxylate] | 5.97 ± 0.87 | 21.1 ± 1.96 | 19.7 ± 1.33 | 2.91 ± 2.38 | 30.6 ± 1.99
7 | Cc1ccccc1NCC(O)COC(=O)[C@]1(C)CCC[C@]2(C)c3ccc(C(C)C)cc3CCC12 (stereo partly drawn) [Compound 3b, (1R,4aS)-2-Hydroxy-3-(2-Methylphenylamino)Propyl-7-Isopropyl-1,4a-Dimethyl-1,2,3,4,4a,9,10, 10a-Octahydrophenanthrene-1-Carboxylate] | 22.6 ± 2.71 | > 100 | > 100 | > 100 | > 100
8 | COc1ccc(N2CC(COC(=O)[C@]3(C)CCC[C@]4(C)c5ccc(C(C)C)cc5CCC34)OC2=O)cc1 (stereo partly drawn) [Compound 4g, (1R,4aS)-(3-(4-Methoxyphenyl)-2-Oxooxazolidin-5-yl)Methyl-7-Isopropyl-1,4a-Dimethyl-1,2,3,4,4a,9,10,10a-Octahydrophenanthrene-1-Carboxylate] | 6.1 ± 0.35 | 19.8 ± 0.3 | 4.1 ± 2.45 | 14.1 ± 8.04 | 26.36 ± 0.15
9 | CC(C)c1ccc2c(c1)CCC1[C@](C)(C(=O)OCC(O)CNc3cccc(Cl)c3)CCC[C@]21C (stereo partly drawn) [Compound 3k, (1R,4aS)-2-Hydroxy-3-(3-Chlorophenylamino)Propyl-7-Isopropyl-1,4a-Dimethyl-1,2,3,4,4a,9,10, 10a-Octahydrophenanthrene-1-Carboxylate] | 13.1 ± 2.66 | 18.2 ± 4.06 | 25.1 ± 4.8 | 18.1 ± 2.33 | 35.3 ± 0.57
